From ChEMBL document CHEMBL6074623, “Carbamoylation at C-8 position of natural 3-arylcoumarin scaffold for the discovery of novel PARP-1 inhibitors with potent anticancer activity” (Eur J Med Chem, 2024) come the findings set out here.

The test system of assay [1] is SUM149PT. Description: Antiproliferative activity against human SUM149PT cells assessed as inhibition of cell growth at 20 uM incubated for 48 hrs by MTT assay relative to control. It is filed as functional. On the technique in general: Tetrazolium assays rely on reduction of a dye to a coloured formazan, in cell work by metabolically active cells.
The test system of assay [2] is HCC1937. Nature of the assay: Antiproliferative activity against human HCC1937 cells assessed as inhibition of cell growth at 20 uM incubated for 48 hrs by MTT assay relative to control. It is filed as functional.
Assay [3] deals with MDA-MB-436. Nature of the assay: Antiproliferative activity against human MDA-MB-436 cells assessed as inhibition of cell growth at 20 uM incubated for 48 hrs by MTT assay relative to control. Type of assay: functional.
Assay [4] relates to SUM149PT. Description: Antiproliferative activity against human SUM149PT cells assessed as inhibition of cell growth incubated for 48 hrs by MTT assay. Type of assay: functional, cell-based.
In assay [5] the test system is HCC1937. Description: Antiproliferative activity against human HCC1937 cells assessed as inhibition of cell growth incubated for 48 hrs by MTT assay. Type of assay: functional, cell-based. As to conditions: HCC1937, 48 h.
In assay [6] the test system is CAPAN-1. Nature of the assay: Antiproliferative activity against human CAPAN-1 cells assessed as inhibition of cell growth incubated for 48 hrs by MTT assay. It is filed as functional, cell-based. As to conditions: CAPAN-1, 48 h.
Assay [7] relates to CAPAN-1. Description: Antiproliferative activity against human CAPAN-1 cells assessed as inhibition of cell growth at 20 uM incubated for 48 hrs by MTT assay relative to control. It is filed as functional.
In assay [8] the test system is CAPAN-1. Nature of the assay: Antiproliferative activity against human CAPAN-1 cells assessed as inhibition of cell growth at 5 uM incubated for 48 hrs by MTT assay relative to control. Type of assay: functional.
Assay [9] relates to SUM149PT. Description: Induction of cell cycle arrest in human SUM149PT cells assessed as accumulation of cells at G0/G1 phase at 2 uM incubated for 24 hrs by propidium iodide/RNase A staining based flow cytometry (reference value: 72.8 %). Type of assay: functional. (In general: Flow cytometry measures light scatter and fluorescence of single cells or particles in a stream.)

Assay [10] deals with SUM149PT. Description: Induction of cell cycle arrest in human SUM149PT cells assessed as accumulation of cells at S phase at 2 uM incubated for 24 hrs by propidium iodide/RNase A staining based flow cytometry (reference value: 16.4 %). It is filed as functional.
For assay [11], the system named is SUM149PT. Nature of the assay: Induction of cell cycle arrest in human SUM149PT cells assessed as accumulation of cells at G2/M phase at 2 uM incubated for 24 hrs by propidium iodide/RNase A staining based flow cytometry (reference value: 5.54 %). Type of assay: functional.
Assay [12] relates to SUM149PT. Description: Induction of cell cycle arrest in human SUM149PT cells assessed as accumulation of cells at G0/G1 phase at 2 uM incubated for 48 hrs by propidium iodide/RNase A staining based flow cytometry (reference value: 69.2 %). It is filed as functional.
In assay [13] the test system is SUM149PT. Nature of the assay: Induction of cell cycle arrest in human SUM149PT cells assessed as accumulation of cells at S phase at 2 uM incubated for 48 hrs by propidium iodide/RNase A staining based flow cytometry (reference value: 18.7 %). It is filed as functional.
The subject of assay [14] is SUM149PT. Description: Induction of apoptosis in human SUM149PT cells assessed as viable cells at 2 uM incubated for 24 hrs by Annexin V-FITC/PI staining based flow cytometry (reference value: 93.7 %). The following applies: read-out: Activity. It is filed as functional.
In assay [15] the test system is SUM149PT. Nature of the assay: Induction of apoptosis in human SUM149PT cells assessed as early apoptotic cells at 2 uM incubated for 24 hrs by Annexin V-FITC/PI staining based flow cytometry (reference value: 2.59 %). Type of assay: functional.
Assay [16] concerns SUM149PT. Description: Induction of apoptosis in human SUM149PT cells assessed as late apoptotic cells at 2 uM incubated for 24 hrs by Annexin V-FITC/PI staining based flow cytometry (reference value: 2.45 %). Type of assay: functional.
The test system of assay [17] is SUM149PT. Nature of the assay: Induction of apoptosis in human SUM149PT cells assessed as necrotic cells at 2 uM incubated for 24 hrs by Annexin V-FITC/PI staining based flow cytometry (reference value: 1.27 %). It is filed as functional.
The test system of assay [18] is SUM149PT. Description: Induction of apoptosis in human SUM149PT cells assessed as viable cells at 2 uM incubated for 48 hrs by Annexin V-FITC/PI staining based flow cytometry (reference value: 96.1 %). Type of assay: functional. As to conditions: read-out: Activity.
Assay [19] has as its system SUM149PT. Description: Induction of apoptosis in human SUM149PT cells assessed as early apoptotic cells at 2 uM incubated for 48 hrs by Annexin V-FITC/PI staining based flow cytometry (reference value: 2.28 %). It is filed as functional.
Assay [20] has as its system SUM149PT. Description: Induction of apoptosis in human SUM149PT cells assessed as late apoptotic cells at 2 uM incubated for 48 hrs by Annexin V-FITC/PI staining based flow cytometry (reference value: 1.13 %). It is filed as functional.
In assay [21] the test system is SUM149PT. Description: Induction of apoptosis in human SUM149PT cells assessed as necrotic cells at 2 uM incubated for 48 hrs by Annexin V-FITC/PI staining based flow cytometry (reference value: 0.51 %). It is filed as functional.
The test system of assay [22] is HCC1937. Nature of the assay: Antiproliferative activity against human HCC1937 cells assessed as inhibition of cell growth at 5 uM incubated for 48 hrs by MTT assay relative to control. It is filed as functional.

As to `COc1ccc(-c2cc3cccc(C(N)=O)c3oc2=O)cc1OC`, the figures for the inhibition at 20 µM in assay [1], in assay [2] and in assay [3] were more than 60%, more than 60% and less than 40%, respectively.

For `NC(=O)c1cc(F)cc2cc(-c3ccsc3)c(=O)oc12`, the figures for the IC50 in assay [4], in assay [5] and in assay [6] were 11.6 µM, 1.9 µM and 20.6 µM, respectively. For the same compound, the inhibition (as a rule, the percentage by which the read-out fell short of the control) at 20 µM is more than 60% in assay [1], more than 60% in assay [2] and less than 40% in assay [3].

For `COc1cc(-c2cc3cc(F)cc(C(N)=O)c3oc2=O)ccc1O`, the IC50 (usually the concentration at which inhibition is half-maximal) was 3.18 µM in assay [4], 4.2 µM in assay [5] and 3.16 µM in assay [6]. In addition, the inhibition at 20 µM in assay [1] is more than 60%; in [2] it was more than 60%; in assay [7], more than 60%; in [3], less than 40%. The inhibition at 5 µM in [8] was more than 50%.

Consider `NC(=O)c1cccc2cc(-c3cccs3)c(=O)oc12`, for which the inhibition at 20 µM in assay [1] was more than 60%; in assay [2], more than 60%; in assay [3], less than 40%.

As to `NC(=O)c1cccc2cc(-c3ccc4c(c3)OCO4)c(=O)oc12`, the results for the inhibition at 20 µM in assay [1], in [2] and in assay [3] were more than 60%, more than 60% and less than 40%, respectively.

Consider `NC(=O)c1cc(F)cc2cc(-c3ccc4c(c3)CCO4)c(=O)oc12`, for which the IC50 in [4] was determined as 5.11 µM; in assay [5] it was 3.71 µM; in [6] it was 21.1 µM. Further, the inhibition at 20 µM in [1] is more than 60%; in assay [2], more than 60%; in assay [3] it was less than 40%.

Consider `NC(=O)c1cc(F)cc2cc(-c3ccccc3)c(=O)oc12`, for which the figures for the inhibition at 20 µM in [1], in assay [2] and in assay [3] were more than 60%, more than 60% and less than 40%, respectively.

On to `NC(=O)c1cc(F)cc2cc(-c3cccc(O)c3)c(=O)oc12`, for which the figures for the inhibition at 20 µM in assay [1], in assay [2] and in assay [3] were more than 60%, more than 60% and less than 40%, respectively.

With `NC(=O)c1cccc2cc(-c3ccsc3)c(=O)oc12`, the inhibition at 20 µM in [1] is more than 60%; in assay [2], more than 60%; in [3], less than 40%.

As to `COc1ccc(-c2cc3cccc(C(N)=O)c3oc2=O)cc1O`, the IC50 stood at 4.82 µM in [4], 10.6 µM in assay [5] and 15.3 µM in assay [6]. Also, the inhibition at 20 µM in assay [1] was more than 60%; in assay [2], more than 60%; in assay [3], less than 40%.

Consider `NC(=O)c1cccc2cn(-c3ccc([C@@H]4CCCNC4)cc3)nc12` [NIRAPARIB], for which the IC50 turned out to be 7.05 µM in assay [4] and 10.4 µM in [6]. The Activity in assay [9] is reported as 54.2%; in [10], 28.4%; in [11], 16.2%; in [12], 32%; in assay [13], 51.9%; in assay [15], 1.85%. Further, the Activity came to 6.34% in assay [16]; 1.93% in assay [17]; 11.8% in assay [19]; 7.18% in assay [20]; 3.34% in [21]. Moreover, the viability at 2 µM came to 89.9% in [14] and 77.7% in assay [18].

Consider `NC(=O)c1cc(F)cc2cc(-c3ccccc3O)c(=O)oc12`, for which the IC50 in assay [4] came out at 3.29 µM; in [5], 2.94 µM; in assay [6], 11.9 µM. In addition, the values for the inhibition at 20 µM in [1], in [2] and in assay [3] were more than 60%, more than 80% and less than 40%, respectively. In addition, the inhibition at 5 µM in assay [22] is more than 70%.

With `NC(=O)c1cccc2cc(-c3cccc(O)c3)c(=O)oc12`, the inhibition at 20 µM was more than 60% in assay [1], more than 60% in [2] and less than 40% in assay [3].

For the compound `COc1ccc(-c2cc3cc(F)cc(C(N)=O)c3oc2=O)cc1O`, the inhibition at 20 µM in assay [1] is more than 60%; in [2] it was more than 60%; in assay [3] it was less than 40%.
